In the supplement of paper PMC10307832:

Assays:
Experiment in all cases: relative viability (nuclei count vs DMSO), 5 days (fraction); higher = more cells survive
Vorinostat + Palbociclib = compound: O=C(CCCCCCC(=O)Nc1ccccc1)NO [Vorinostat] + CC(=O)c1c(C)c2cnc(Nc3ccc(N4CCNCC4)cn3)nc2n(C2CCCC2)c1=O [Palbociclib] (partner 0.5 µM)
Outline: (§1)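 Lung cancer cell lines were seeded in 1536-well plates and dosed by pin tool the next day, with either a single drug or a fixed anchor-drug dose combined with five library-drug doses (not always all listed) spaced in √10 steps. Five days later, one step fixed the cells and stained their nuclei (final 0.05% Triton X-100, 1% formaldehyde, 1 ug/ml Hoechst), and nuclei were counted on 4× images. Relative viability is the nuclei count in treated wells divided by the count in vehicle wells, and each value is the median of duplicate plates.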

Vorinostat + Bortezomib = compound: O=C(CCCCCCC(=O)Nc1ccccc1)NO [Vorinostat] + CC(C)C[C@H](NC(=O)[C@H](Cc1ccccc1)NC(=O)c1cnccn1)B(O)O [Bortezomib] (partner 0.002 µM)
Outline: as §1

Vorinostat + Foretinib = compound: O=C(CCCCCCC(=O)Nc1ccccc1)NO [Vorinostat] + COc1cc2c(Oc3ccc(NC(=O)C4(C(=O)Nc5ccc(F)cc5)CC4)cc3F)ccnc2cc1OCCCN1CCOCC1 [Foretinib] (partner 0.25 µM)
Outline: as §1

Vorinostat + Pictilisib = compound: O=C(CCCCCCC(=O)Nc1ccccc1)NO [Vorinostat] + CS(=O)(=O)N1CCN(Cc2cc3nc(-c4cccc5[nH]ncc45)nc(N4CCOCC4)c3s2)CC1 [Pictilisib] (partner 1 µM)
Outline: as §1

Vorinostat + Crizotinib = compound: O=C(CCCCCCC(=O)Nc1ccccc1)NO [Vorinostat] + C[C@@H](Oc1cc(-c2cnn(C3CCNCC3)c2)cnc1N)c1c(Cl)ccc(F)c1Cl [Crizotinib] (partner 1 µM)
Outline: as §1

| Cell Line | relative viability (Vorinostat + Palbociclib; first compound 0.253 µM) | relative viability (Vorinostat + Palbociclib; first compound 0.8 µM) | relative viability (Vorinostat + Palbociclib; first compound 2.53 µM) | relative viability (Vorinostat + Palbociclib; first compound 8 µM) | relative viability (Vorinostat + Bortezomib; first compound 0.253 µM) | relative viability (Vorinostat + Bortezomib; first compound 0.8 µM) | relative viability (Vorinostat + Bortezomib; first compound 2.53 µM) | relative viability (Vorinostat + Bortezomib; first compound 8 µM) | relative viability (Vorinostat + Foretinib; first compound 0.253 µM) | relative viability (Vorinostat + Foretinib; first compound 0.8 µM) | relative viability (Vorinostat + Foretinib; first compound 2.53 µM) | relative viability (Vorinostat + Foretinib; first compound 8 µM) | relative viability (Vorinostat + Pictilisib; first compound 0.253 µM) | relative viability (Vorinostat + Pictilisib; first compound 0.8 µM) | relative viability (Vorinostat + Pictilisib; first compound 2.53 µM) | relative viability (Vorinostat + Pictilisib; first compound 8 µM) | relative viability (Vorinostat + Crizotinib; first compound 0.253 µM) | relative viability (Vorinostat + Crizotinib; first compound 0.8 µM) | relative viability (Vorinostat + Crizotinib; first compound 2.53 µM) | relative viability (Vorinostat + Crizotinib; first compound 8 µM) |
| --- | --- | --- | --- | --- | --- | --- | --- | --- | --- | --- | --- | --- | --- | --- | --- | --- | --- | --- | --- | --- |
| HCC-827 | 0.576 | 0.506 | 0.333 | 0.135 | 1.03 | 1.11 | 0.913 | 0.451 | 1.07 | 1.02 | 0.55 | 0.174 | 1.1 | 1.08 | 0.732 | 0.411 | 0.97 | 0.964 | 0.581 | 0.174 |
| HOP-62 | 0.492 | 0.409 | 0.177 | 0.0765 | 1.25 | 0.434 | 0.328 | 0.0711 | 1.03 | 1.1 | 0.365 | 0.122 | 0.966 | 0.205 | 0.203 | 0.079 | 0.972 | 0.831 | 0.251 | 0.0671 |
| LC-2-ad | 0.566 | 0.455 | 0.331 | 0.186 | 1.01 | 0.579 | 0.146 | 0.0588 | 0.984 | 0.681 | 0.268 | 0.145 | 0.568 | 0.292 | 0.0981 | 0.0042 | 0.368 | 0.361 | 0.268 | 0.178 |
| LCLC-97TM1 | 0.256 | 0.201 | 0.109 | 0.0671 | 0.724 | 0.413 | 0.121 | 0.0563 | 1.06 | 0.957 | 0.394 | 0.153 | – | 0.151 | 0.168 | 0.0934 | – | 0.328 | 0.157 | 0.11 |
| LCLC-103H | 0.494 | 0.424 | 0.368 | 0.302 | 1.16 | 0.893 | 0.391 | 0.238 | 0.924 | 0.801 | 0.243 | 0.135 | 0.794 | 0.55 | 0.306 | 0.211 | 1.12 | 1.13 | 0.737 | 0.254 |
| LK-2 | 0.724 | 0.585 | 0.104 | 0.0605 | – | – | – | – | 1.03 | 0.896 | 0.28 | 0.137 | 0.48 | 0.379 | 0.211 | 0.132 | 0.227 | 0.237 | 0.175 | 0.0931 |
| LOU-NH91 | 0.533 | 0.515 | 0.512 | 0.384 | 0.514 | 0.475 | 0.438 | 0.354 | 1.08 | 0.917 | 0.758 | 0.347 | 0.556 | 0.472 | 0.417 | 0.32 | 0.755 | 0.746 | 0.599 | 0.362 |
| LU99A | 0.389 | 0.375 | 0.272 | 0.104 | 1.09 | 0.863 | 0.298 | 0.158 | 0.81 | 0.692 | 0.319 | 0.222 | 0.264 | 0.278 | 0.154 | 0.141 | 0.523 | 0.44 | 0.236 | 0.146 |
| NCI-H358 | 0.139 | 0.167 | 0.101 | 0.0793 | – | – | – | – | 1.01 | 0.649 | 0.154 | 0.0783 | 0.372 | 0.468 | 0.17 | 0.172 | 0.526 | 0.393 | 0.133 | 0.134 |
| NCI-H596 | – | – | – | – | 0.942 | 0.693 | 0.663 | 0.258 | 0.847 | 0.715 | 0.53 | 0.22 | 0.355 | 0.357 | 0.316 | 0.277 | 1.05 | 0.945 | 0.517 | 0.31 |
| NCI-H1395 | 0.714 | 0.688 | 0.537 | 0.309 | – | – | – | – | 1.09 | 1.09 | 0.822 | 0.427 | 0.637 | 0.619 | 0.427 | 0.362 | – | – | – | – |
| NCI-H1563 | – | – | – | – | 0.977 | 0.778 | 0.579 | 0.503 | 0.999 | 0.833 | 0.574 | 0.52 | 0.682 | 0.637 | 0.68 | 0.592 | 0.796 | 0.824 | 0.469 | 0.492 |
| NCI-H1703 | – | – | – | – | 0.262 | 0.23 | 0.156 | 0.133 | 0.418 | 0.599 | 0.632 | 0.277 | 0.31 | 0.233 | 0.363 | 0.2 | 0.977 | 0.716 | 0.298 | 0.113 |
| NCI-H1792 | 0.725 | 0.57 | 0.485 | 0.175 | 1.01 | 0.902 | 0.637 | 0.0799 | – | – | – | – | 0.283 | 0.179 | 0.0803 | 0.0579 | 0.966 | 0.983 | 0.826 | 0.0888 |
| NCI-H1793 | 0.283 | 0.279 | 0.213 | 0.159 | – | – | – | – | 1.03 | 0.679 | 0.257 | 0.204 | 0.479 | 0.355 | 0.286 | 0.174 | – | – | – | – |
| NCI-H1944 | 0.31 | 0.272 | 0.176 | 0.118 | – | – | – | – | 0.832 | 0.594 | 0.321 | 0.142 | 0.338 | 0.308 | 0.27 | 0.18 | 0.965 | 0.631 | 0.292 | 0.125 |
| NCI-H2170 | 0.407 | 0.345 | 0.253 | 0.102 | – | – | – | – | 0.982 | 1.04 | 0.675 | 0.526 | 0.348 | 0.235 | 0.209 | 0.185 | 1.29 | 0.967 | 0.229 | 0.149 |
| SK-MES-1 | 0.377 | 0.453 | 0.418 | 0.222 | – | – | – | – | 1.14 | 1.04 | 0.778 | 0.249 | 0.469 | 0.349 | 0.231 | 0.0945 | 1.13 | 1.06 | 0.495 | 0.157 |
| SW 900 | 0.513 | 0.526 | 0.219 | 0.136 | – | – | – | – | 0.925 | 0.927 | 0.644 | 0.111 | – | – | – | – | – | – | – | – |
